Key:
Rat glioma (RG2) cells [1] = assay: LLLT combined with 14C PDT, Presto Blue cell kill, RG2 cells; format: cell-based; conditions: for 14C-mediated cell kill after LLLT: RG2, 100 nM 14C
Method: (§3) RG2 cells (15,000 cells) or human bladder cancer (T24) cells (10,000 cells) were seeded in complete DMEM in 96-well culture plates and incubated at 37° C., 5% CO2 overnight. The next day, the cells were washed once with PBS and the medium was replaced with complete DMEM without phenol red or sodium pyruvate. Cells were treated with either 660 nm, 905 nm or a combination of both wavelengths at the indicated fluence doses in J/cm^2. After 6 or 24 hours, the media was replaced with media containing the ruthenium-based PDC 14C (100 nM for RG2 cells and 200 nM for T24 cells) for 1 hour, then the PDC was washed away and the cells were treated with PDT using green laser light (wavelength: 530 nm, fluence 20 J/cm^2) using a 96-laser diode array light source (TLD3000, Theralase Inc. Toronto, ON, Canada), after which the plates were returned to the dark in the incubator overnight. Cell viability was measured by Presto Blue cell viability assay quantifying fluorescence at using a plate reader at excitation emissions of 560/600 nm. PDT-mediated cell kill was calculated by subtracting cell kill due to LLLT first and values were normalized to control cells that were kept in the dark and not treated with LLLT.
(§4) RG2 cells (7,500 cells) or human bladder cancer (T24) cells (5,000 cells) were seeded in complete DMEM in 96-well culture plates and incubated at 37° C., 5% CO2 overnight. The next day, the cells were washed once with PBS and the medium was replaced with complete DMEM without phenol red or sodium pyruvate, with or without 10 uM GCR antagonist mifepristone for an additional 24 hours. Cells were treated with either 660 nm, 905 nm or a combination of both wavelengths at the indicated energy doses in J/cm^2. After 6 or 24 hours, the media was replaced with media containing the ruthenium-based photodynamic compound 14C (100 nM for RG2 cells and 200 nM for T24 cells) for 3 hours, then the drug was washed away and the cells were treated with PDT using green laser (wavelength: 530 nm, fluence 20 J/cm^2) using a 96-laser diode array light source (TLD-3000, Theralase Inc. Toronto, ON, Canada), and the plates were returned to the dark in the incubator overnight. Cell viability was measured by Presto Blue cell viability assay quantifying fluorescence at using a plate reader at excitation emissions of 560/600 nm.

[2] = tested on: human bladder cancer (T24) cells; assay: LLLT combined with 14C PDT, Presto Blue cell kill, T24 cells; format: cell-based; conditions: for 14C-mediated cell kill after LLLT: T24, 200 nM 14C
Method: as §3, §4

CT26WT tumor cells = assay: LLLT and PDT in vivo hind leg tumor model; parameters: species or system Balb/c mice; conditions: LLLT 2.5-20 J/cm^2 daily for 5 days; injection on day 5; suboptimal red light PDT 90 J/cm^2 4 hours after injection
Method: CT26WT tumor cells were implanted in the hind leg of Balb/c mice to develop a hind leg tumor model. […] TLD-1433 (14C) was injected on day 5 of LLLT treatment and suboptimal red light PDT (90 J/cm^2) was performed 4 hours after injection. Tumor size and survival were determined to examine the effect of LLLT on potentiating the effect of 14C-mediated PDT and improving the survival curve.

Rat glioma (RG2) cells [3] = assay: LLLT combined with Cisplatin, Presto Blue cell kill, RG2 cells; format: cell-based; conditions: for Cisplatin-mediated cell kill after LLLT: RG2, 1 ug/ml
Method: (§1) After 6 or 24 hours, the cells were treated with Cisplatin (1 ug/ml for RG2 cells or 1.5 ug/ml for T24 cells), and the plates were returned to the incubator overnight. Cell viability was measured by Presto Blue cell viability assay quantifying fluorescence at using a plate reader at excitation emissions of 560/600 nm. Values were normalized to control cells that were kept in the dark and not treated with LLLT.
as §1, with “Values will be” for “Values were”, “that are” for “that were”
(§2) Cells were then treated with either: 1) the ruthenium-based PDC 14C followed by PDT using a green laser light source (FIGS. 24A-24D); 2) the antineoplastic drug Cisplatin (FIGS. 25A-25D). The plates were then returned to the incubator overnight. Cell viability was measured by Presto Blue cell viability assay quantifying fluorescence at using a plate reader at excitation emissions of 560/600 nm. Values were normalized to control cells that were […].

[4] = tested on: human bladder cancer (T24) cells; assay: LLLT combined with Cisplatin, Presto Blue cell kill, T24 cells; format: cell-based; conditions: for Cisplatin-mediated cell kill after LLLT: T24, 1.5 ug/ml
Method: as §1
as §1, with “Values will be” for “Values were”, “that are” for “that were”
as §2

RG2 cells [5] = assay: Stem-like characteristics of cancer cells (qPCR of stem cell genes, proliferation rate) after LLLT; format: cell-based, rat; conditions: 24 hours pre-treatment
Method: Cells were then treated with 905 nm at fluence doses of 5 or 20 J/cm^2. Cells were incubated for 6 hours, then the cells were washed once with PBS and harvested by TRIzol reagent for RNA extraction (Invitrogen) per the manufacturer's protocol. 2 ug of RNA were used to prepare cDNA using the high-capacity cDNA reverse transcription kit (Thermofisher) and the cDNA was diluted 1:10. 2 μl of cDNA was used per PCR reaction using the SYBR green master mix and qPCR was run on the LightCycler 480 (Roche). Gene expression was normalized to the housekeeping gene HPRT, and values were normalized to control cells that were kept in the dark and not treated with LLLT. Relative analysis of stem cell associated transcription factor genes CD133, OCT4, NANOG, SOX2 and LIN28a, or proliferation promoting genes NESTIN, MSI1, MELK and ALDH1a1. […] Phase contrast images (4×) were taken every 4 hours using the Incucyte ZOOM system to calculate percent confluency overtime. […] Proliferation rate was calculated as the inverse of T (time when cells reach confluency halfway between original seeding density (15%) and final 100% confluency). Data were normalized to the corresponding dark control group (0 J/cm^2) for each drug expressed as 1 (not shown). […]

RG2 cells [6] = conditions: Mifepristone 10 uM, 24 hours
Method: (§5) RG2 cells (30,000 cells) or human bladder cancer (T24) cells (20,000 cells) are seeded in complete DMEM in 96-well Seahorse culture plates (Agilent technologies) and incubated at 37° C., 5% CO2. The cells are treated for 24 hours with the GCR agonist, dexamethasone, or the GCR antagonist, Mifepristone (10 uM). The cells are then washed once with PBS and the medium replaced with complete DMEM without phenol red or sodium pyruvate. Cells are treated with either 660 nm, 905 nm or a combination of both wavelengths at energy doses from 0.5 to 10 J/cm^2. Cells are incubated for 24 hours. The media is then replaced with XF media without sodium bicarbonate and the plate placed at 37° C. in XF prep station (0% CO2) for 1 hour. Basal ECAR and OCR levels are measured using XFe96 analyzer (Agilent technologies) per the manufacturer's protocol.

[7] = tested on: human bladder cancer (T24) cells; conditions: Mifepristone 10 uM, 24 hours
Method: as §5

[8] = LLLT 905 nm PW 5 J/cm^2 or 660 nm CW 2.5 J/cm^2 before PDT 530 nm 20 J/cm^2
[9] = LLLT higher fluence values of 20 and 10 J/cm^2
[10] = 5 J/cm^2 for 905 nm PW and most conditions with 660 nm CW alone (Example 9A)
[11] = 905 nm PW or combined 905 nm PW and 660 nm CW at 20 J/cm^2 (Example 9A)
[12] = RG2, 10 uM pre-treatment, no LLLT
[13] = RG2, 10 uM, LLLT 905 nm 5 J/cm^2, 660 nm 2.5 J/cm^2 or combination 5 J/cm^2
[14] = T24, 10 uM pre-treatment, no LLLT
[15] = T24, 10 uM, LLLT 905 nm 5 J/cm^2, 660 nm 2.5 J/cm^2 or combination 5 J/cm^2

## Cc1ccnc(-c2cc(C)ccn2)c1.Cc1ccnc(-c2cc(C)ccn2)c1.[Cl-].[Cl-].[Ru+2].c1csc(-c2ccc(-c3ccc(-c4nc5c6cccnc6c6ncccc6c5[nH]4)s3)s2)c1 [14C]
Rat glioma (RG2) cells [1]; [8]
  14C-mediated cell kill after LLLT: increased
Rat glioma (RG2) cells [1]; [9]
  14C-mediated cell kill after LLLT: promoted cell survival
[2]; [8]
  14C-mediated cell kill after LLLT: increased
[2]; [9]
  14C-mediated cell kill after LLLT: promoted cell survival
CT26WT tumor cells
  survival of mice, LLLT plus PDT compared to PDT only: synergistically increased the survival

## N.N.[Cl][Pt][Cl] [Cisplatin]
Rat glioma (RG2) cells [3]; [10]
  Cisplatin-mediated cell kill after LLLT: promoted cell survival
Rat glioma (RG2) cells [3]; [11]
  Cisplatin-mediated cell kill after LLLT: increased
Rat glioma (RG2) cells [3]; RG2, 905 nm 5 J/cm^2, 660 nm 2.5 J/cm^2 or combination 5 J/cm^2 (Example 19)
  Cisplatin effect after LLLT (without Mifepristone): increased
Rat glioma (RG2) cells [3]; RG2, higher doses 10-20 J/cm^2 (Example 19)
  Cisplatin effective cell kill after LLLT (without Mifepristone): decreased
[4]; [10]
  Cisplatin-mediated cell kill after LLLT: promoted cell survival
[4]; [11]
  Cisplatin-mediated cell kill after LLLT: increased
[4]; T24, 905 nm 5 J/cm^2, 660 nm 2.5 J/cm^2 or combination 5 J/cm^2 (Example 19)
  Cisplatin effect after LLLT (without Mifepristone): increased
[4]; T24, higher doses 10-20 J/cm^2 (Example 19)
  Cisplatin effective cell kill after LLLT (without Mifepristone): decreased

## CC#C[C@]1(O)CC[C@H]2[C@@H]3CCC4=CC(=O)CCC4=C3[C@@H](c3ccc(N(C)C)cc3)C[C@@]21C [Mifepristone]
Rat glioma (RG2) cells [1]; [12]
  effect of Mifepristone treatment on PDT cell kill: did not have any significant effects
Rat glioma (RG2) cells [1]; RG2, 10 uM, 24 hours
  cell kill by Mifepristone treatment alone: did not induce cell kill
Rat glioma (RG2) cells [1]; [13]
  effect of Mifepristone pre-treatment on the synergistic effect of LLLT on 14C PDT: significantly inhibited
[2]; [14]
  effect of Mifepristone treatment on PDT cell kill: did not have any significant effects
[2]; T24, 10 uM, 24 hours
  cell kill by Mifepristone treatment alone: did not induce cell kill
[2]; [15]
  effect of Mifepristone pre-treatment on the synergistic effect of LLLT on 14C PDT: significantly inhibited
Rat glioma (RG2) cells [3]; [12]
  effect of Mifepristone treatment on Cisplatin cell kill: did not have any significant effects
Rat glioma (RG2) cells [3]; RG2, 10 uM, 24 hours (Example 19)
  cell kill by Mifepristone treatment alone: did not induce cell kill
Rat glioma (RG2) cells [3]; [13]
  effect of Mifepristone pre-treatment on the synergistic effect of LLLT on Cisplatin: significantly inhibited
[4]; [14]
  effect of Mifepristone treatment on Cisplatin cell kill: did not have any significant effects
[4]; T24, 10 uM, 24 hours (Example 19)
  cell kill by Mifepristone treatment alone: did not induce cell kill
[4]; [15]
  effect of Mifepristone pre-treatment on the synergistic effect of LLLT on Cisplatin: significantly inhibited
RG2 cells [5]
  effect of Mifepristone pre-treatment on positive effects of LLLT on stem-like characteristics: blocked
RG2 cells [6]
  effect on Warburg effect (glycolysis, mitochondrial respiration): potentiates the Warburg effect
RG2 cells [6]; then LLLT 0.5 to 10 J/cm^2
  effect on LLLT inhibition of the Warburg effect: reverses the positive effect
[7]
  effect on Warburg effect (glycolysis, mitochondrial respiration): potentiates the Warburg effect
[7]; then LLLT 0.5 to 10 J/cm^2
  effect on LLLT inhibition of the Warburg effect: reverses the positive effect
